Patent publication US12208071B2, “Glucagon receptor antagonists” (LIGAND PHARMACEUTICALS INCORPORATED, priority 2018, dated 2025)

Legend:
[1] = Accelerated stability (ICH), 40° C./75% RH; type: physicochemical; conditions: for Appearance / Assay (anhydrous w/w %) / Chiral purity (area %) / Individual related substance (area %, w/w), RRT 0.46 / Individual related substance (area %, w/w), RRT 0.64 / Individual related substance (area %, w/w), RRT 1.26 / Purity (area %) / Total related substances (area %, w/w) / Water content (%) / XRPD: 40° C./75% RH
Description: (§1) Polymorph Form A was manufactured under Good Manufacturing Practices (GMP)-compliant conditions at a scale of 1.26 kg. The container closure for the batch consisted of double-lined low density polyethylene bags placed inside fiberboard drums, and the batch was on ICH stability under storage conditions of 25° C./60% relative humidity (RH) and 40° C./75% RH. Long-term stability data through the 36-month interval and accelerated stability data through the 6-month interval are shown in Tables 2 and 3.
(§2) Stability samples were tested according to the protocol (Table 5) and to the same specification as the drug substance. The available stability data for samples stored at 25° C./60% RH and 40° C./75% RH are summarized.

[2] = Long-term stability (ICH), 25° C./60% RH; type: physicochemical; conditions: 25° C./60% RH
Description: as §1, §2

## Cc1cc(C)c(-c2ccc(NC(=O)[C@H](Cc3ccc(C(=O)NCCS(=O)(=O)[O-])cc3)c3ccc(-c4ccc(C(C)(C)C)cc4)cc3)cc2)c(C)c1.[Na+] [Polymorph Form A, Sodium (R)-2-(4-(2-(4′-(tert-butyl)-[1,1′-biphenyl]-4-yl)-3-oxo-3-((2′,4′,6′-trimethyl-[1,1′-biphenyl]-4-yl)amino)propyl)benzamido)ethane-1-sulfonate]
[1]; 40° C./75% RH after the 2-month interval, stabilized level
  water content: approximately 10%
[1]; 0 months
  Appearance: White
  Assay (anhydrous w/w %): 101.3 w/w %
  Chiral purity (area %): 99.9 area %
  Individual related substance (area %, w/w), RRT 0.46: 0.08 area %, w/w
  Individual related substance (area %, w/w), RRT 0.64: 0.12 area %, w/w
  Individual related substance (area %, w/w), RRT 1.26: 0.05 area %, w/w
  Purity (area %): 99.8 area %
  Total related substances (area %, w/w): 0.25 area %, w/w
  Water content (%): 2.1%
[1]; 1 month
  Appearance: White
  Assay (anhydrous w/w %): 102.0 w/w %
  Chiral purity (area %): 99.8 area %
  Individual related substance (area %, w/w), RRT 0.46: 0.08 area %, w/w
  Individual related substance (area %, w/w), RRT 0.64: 0.11 area %, w/w
  Individual related substance (area %, w/w), RRT 1.26: 0.05 area %, w/w
  Purity (area %): 99.8 area %
  Total related substances (area %, w/w): 0.24 area %, w/w
  Water content (%): 8.1%
[1]; 2 months
  Appearance: White
  Assay (anhydrous w/w %): 103.4 w/w %
  Chiral purity (area %): 99.8 area %
  Individual related substance (area %, w/w), RRT 0.46: 0.08 area %, w/w
  Individual related substance (area %, w/w), RRT 0.64: 0.12 area %, w/w
  Individual related substance (area %, w/w), RRT 1.26: 0.06 area %, w/w
  Purity (area %): 99.7 area %
  Total related substances (area %, w/w): 0.26 area %, w/w
  Water content (%): 9.8%
[1]; 3 months
  Appearance: White
  Assay (anhydrous w/w %): 103.4 w/w %
  Chiral purity (area %): 100.0 area %
  Individual related substance (area %, w/w), RRT 0.46: 0.08 area %, w/w
  Individual related substance (area %, w/w), RRT 0.64: 0.11 area %, w/w
  Individual related substance (area %, w/w), RRT 1.26: 0.05 area %, w/w
  Purity (area %): 99.8 area %
  Total related substances (area %, w/w): 0.24 area %, w/w
  Water content (%): 10.0%
  XRPD: Same form
[1]; 6 months
  Appearance: White
  Assay (anhydrous w/w %): 103.7 w/w %
  Chiral purity (area %): 100.0 area %
  Individual related substance (area %, w/w), RRT 0.46: 0.08 area %, w/w
  Individual related substance (area %, w/w), RRT 0.64: 0.12 area %, w/w
  Individual related substance (area %, w/w), RRT 1.26: 0.05 area %, w/w
  Purity (area %): 99.8 area %
  Total related substances (area %, w/w): 0.25 area %, w/w
  Water content (%): 10.0%
  XRPD: Same form
[2]; 0 months
  Appearance: White
  Assay (anhydrous w/w %): 101.3 w/w %
  Chiral purity (area %): 99.9 area %
  Individual related substance (area %, w/w), RRT 0.46: 0.08 area %, w/w
  Individual related substance (area %, w/w), RRT 0.64: 0.12 area %, w/w
  Individual related substance (area %, w/w), RRT 1.20: 0.05 area %, w/w
  Purity (% area): 99.8 % area
  Total related substances: 0.25%
  Water content (%): 2.1%
[2]; 3 months
  Appearance: White
  Assay (anhydrous w/w %): 102.5 w/w %
  Chiral purity (area %): 99.8 area %
  Individual related substance (area %, w/w), RRT 0.46: 0.08 area %, w/w
  Individual related substance (area %, w/w), RRT 0.64: 0.12 area %, w/w
  Individual related substance (area %, w/w), RRT 1.20: 0.05 area %, w/w
  Purity (% area): 99.8 % area
  Total related substances: 0.25%
  Water content (%): 6.1%
[2]; 6 months
  Appearance: White
  Assay (anhydrous w/w %): 101.1 w/w %
  Chiral purity (area %): 99.8 area %
  Individual related substance (area %, w/w), RRT 0.46: 0.08 area %, w/w
  Individual related substance (area %, w/w), RRT 0.64: 0.11 area %, w/w
  Individual related substance (area %, w/w), RRT 1.20: 0.05 area %, w/w
  Purity (% area): 99.8 % area
  Total related substances: 0.24%
